{
  "source": "patent US9244057B2",
  "about": "“Multiphase microarrays and uses thereof” (THE REGENTS OF THE UNIVERSITY OF MICHIGAN, priority 2010, dated 2016)",
  "test_system": "MDA-MB-231 breast cancer cells",
  "experiment": "cell-exclusion migration assay (aqueous two-phase system patterning, 96-well plate)",
  "assay_type": "cell-based, human",
  "settings": "MDA-MB-231 cells; for effect on motility/migration of cells (in words): blebbistatin 5-200 μM for 18 hrs, then another 12 hrs in culture medium before imaging",
  "protocol": "6.4% (w/w) solution of the DEX 500K phase was prepared in culture media and kept at 4° C. until use. The tip magazine of an automated liquid handler (CyBi-Well, CyBio) was loaded with 96 sterile 25 μl pipette tips (CyBio). 75 μl of the DEX solution was pipetted into each well of a 96-well microplate (Corning), which was then placed on the stage of the liquid handler. To load pipette tips with the DEX solution, the stage was slowly raised until the pipette tips were slightly inside the DEX solution. 10 μl of the DEX solution was aspirated into the tips at a rate of 5 μl/s. The loaded tips were brought within 200 μm of the bottom of the wells of an empty microplate and 0.8 μl of the DEX solution was dispensed onto the surface at a rate of 0.5 μl/s to form circular droplets. The microplate was kept in a culture hood for at least 24 hrs to allow the droplets to dry. Images of the dried droplets were captured using a bright-field microscope (Nikon, TS-200). The Feret diameters of the droplets were determined using the “Analyze Particles” function of ImageJ (NIH). Droplets whose Feret diameters were not within ˜1% of the desired mean diameter were excluded from use in the assay. The entire printing and drying process was performed in a sterile culture hood.\nThree different human cancer cell lines were used: MDA-MB-231 breast cancer cells (ATCC) were cultured in DMEM medium supplemented with 10% heat-inactivated fetal bovine serum (HI-FBS, Invitrogen), 1% glutamine (Invitrogen), and 1% antibiotic. A549 lung cancer cells (ATCC) were cultured using F-12K medium (ATCC) supplemented with 10% HI-FBS and 1% antibiotic. PC-3 prostate cancer cells were maintained in DMEM supplemented with 10% HI-FBS and 1% antibiotic. Cells were maintained in a cell culture incubator at 37° C. with 5% CO2 and 95% humidity. When at desired confluence, cells were washed with PBS and Hank's-based enzyme-free cell dissociation buffer was added to the flask. Cells were incubated for 30 min and then collected and suspended in complete growth medium. After centrifuging down for 5 min at 4° C. and 1000 rpm, cells were resuspended in appropriate volume of the culture medium to give a density of 2×10^6 cells/ml.\n5.0% (w/w) solution of the PEG 35K phase was prepared in culture media and kept at 4° C. until use. This solution was added to the cell suspension at a 1:1 (v/v) ratio to give a final PEG phase concentration of 2.5%. Prior to this step, cell suspension density was adjusted by addition of culture media to result in a final density of 4.5×10^4 MDA-MB-231 cells, 4.0×10^4 A549 cells, and 4.5×10^4 PC-3 cells after addition of the PEG-containing media. These cell densities were selected from preliminary experiments that evaluated the number of cells required to form a confluent monolayer per unit surface area. 80 μl of the resulting solution was added to each well of a 96-well plate, which was incubated at 37° C. with 5% CO2 and 95% humidity overnight (12 hrs). Then, the two-phase media was washed out and replaced with regular culture media. This was set as the time zero of the migration experiment.\nAfter allowing MDA-MB-231 cells to spread and form a confluent monolayer around the cell excluded gaps, they were treated with (±)-blebbistatin at different concentrations in the range 5-200 μM or anti-cancer drugs paclitaxel, colchicine, and nocodazole in the concentration range of 1-1000 nM. Cells were incubated for 18 hrs in the presence of blebbistatin, washed with PBS once, and regular culture medium was added. Incubation continued for another 12 hrs before imaging. To study the effect of anti-cancer drugs, cells were incubated with each drug for 2 hrs, washed with PBS, and then supplied with culture medium. Imaging was performed after 30 hrs of incubation. Experiments were set in 30 replicates. All reagents were purchased from Sigma.\nAfter migration experiments were complete, cells were stained with a 5 μM Calcein AM and the plates were incubated at 37° C. for 30 min. […]",
  "key": {"[1]": {"settings": "2 hr treatment, tested 1-1000 nM, imaging after 30 hrs"}},
  "data": [
    {"compound": "Cc1ccc2c(c1)C(=O)C1(O)CCN(c3ccccc3)C1=N2", "note": "(racemic) [blebbistatin, (±)-blebbistatin]", "values": [
      {"measurement": "effect on motility/migration of cells (in words)", "value": "dose-dependent response"},
      {"measurement": "effect on motility/migration of cells (in words)", "setting": "listed as Blebbistatin", "value": "dose-dependent inhibition"},
      {"measurement": "IC50", "setting": "six concentrations 5-200 μM for 18 hrs, BioDataFit software, read-out: IC50 for inhibition of cell migration", "value": 31.8, "unit": "µM"}
    ]},
    {"compound": "COC(=O)Nc1nc2ccc(C(=O)c3cccs3)cc2[nH]1", "note": "[Nocodazole, nocodazole]", "values": [
      {"measurement": "reduction of migration", "setting": "[1]", "value": "less than 20%"}
    ]},
    {"compound": "CC(=O)O[C@H]1C(=O)[C@@]2(C)[C@H]([C@H](OC(=O)c3ccccc3)[C@]3(O)C[C@H](OC(=O)[C@H](O)[C@@H](NC(=O)c4ccccc4)c4ccccc4)C(C)=C1C3(C)C)[C@]1(OC(C)=O)CO[C@@H]1C[C@@H]2O", "note": "[Paclitaxel, paclitaxel]", "values": [
      {"measurement": "concentration range showing potency for inhibiting cell motility", "setting": "[1]", "value": "0.01 to 0.1", "unit": "µM"}
    ]},
    {"compound": "COc1cc2c(c(OC)c1OC)-c1ccc(OC)c(=O)cc1[C@@H](NC(C)=O)CC2", "note": "[colchicine]", "values": [
      {"measurement": "effect on cell motility (in words)", "setting": "2 hr treatment, tested 1-1000 nM, imaging after 30 hrs, especially above 100 nM", "value": "reduced cell motility in a dose-dependent manner"}
    ]}
  ]
}
